Measurements taken from US20130217664A1, “NOVEL COMPOUNDS USEFUL FOR THE TREATMENT OF DEGENERATIVE AND INFLAMMATORY DISEASES” (priority 2012, published 2013).

Tests used:
human TYK2 = target: T1, human TYK2 (Homo sapiens, UniProt P29597); assay: TYK2 inhibition assay; assay type: biochemical; settings: recombinant human TYK2 catalytic domain, polyGT substrate
T1 construct: catalytic domain (amino acids 871-1187; catalog number 08-147); purchased Carna Biosciences 08-147
T1 sequence (P29597 871-1187): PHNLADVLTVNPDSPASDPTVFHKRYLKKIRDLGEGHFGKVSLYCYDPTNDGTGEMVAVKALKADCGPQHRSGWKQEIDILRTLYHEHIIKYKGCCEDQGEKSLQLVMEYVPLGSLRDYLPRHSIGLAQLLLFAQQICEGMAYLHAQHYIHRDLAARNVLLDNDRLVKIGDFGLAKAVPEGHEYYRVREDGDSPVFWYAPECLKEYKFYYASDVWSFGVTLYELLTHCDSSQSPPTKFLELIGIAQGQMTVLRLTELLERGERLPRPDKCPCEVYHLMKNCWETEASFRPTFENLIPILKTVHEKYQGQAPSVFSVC
Method in brief: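 Radiometric kinase reaction run 90 min at 30 °C, stopped with phosphoric acid, washed and scintillation-counted.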

CTLL-2 cell line = assay: CTLL2 viability assay; assay type: cell-based; settings: Mus musculus, IL-2 dependent CTLL2 viability, 24 h, ATP-lite
From the text: The protocol describes the methods to analyse the activity of compounds on their ability to sustain the IL2-dependent viability of CTLL2.
Final DMSO concentration was 0.1%.

human JAK3 = target: T2, human JAK3 (Homo sapiens, UniProt P52333); assay: JAK3 inhibition assay; assay type: biochemical; settings: recombinant human JAK3 catalytic domain; polyGT substrate
T2 construct: catalytic domain (amino acids 781-1124; catalog number PV3855); purchased Invitrogen PV3855
T2 sequence (P52333 781-1124): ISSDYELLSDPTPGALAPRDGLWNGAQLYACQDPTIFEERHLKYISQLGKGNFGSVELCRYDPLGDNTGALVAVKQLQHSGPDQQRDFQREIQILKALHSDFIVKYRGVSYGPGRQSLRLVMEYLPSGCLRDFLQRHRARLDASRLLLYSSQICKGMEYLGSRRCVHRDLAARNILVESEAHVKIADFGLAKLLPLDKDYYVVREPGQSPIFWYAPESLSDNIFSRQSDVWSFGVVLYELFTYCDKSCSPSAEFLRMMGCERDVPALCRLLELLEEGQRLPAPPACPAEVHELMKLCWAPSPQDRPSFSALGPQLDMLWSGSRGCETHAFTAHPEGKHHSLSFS
Method in brief: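 Radiometric kinase assay: 0.5 ng JAK3 with 2.5 μg polyGT in Tris pH 7.5/MgCl2 buffer, 1 μM ATP plus 0.25 μCi 33P-γ-ATP, 1% DMSO, 45 min at 30 °C, stopped with phosphoric acid.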

human JAK1 = target: T3, human JAK1 (Homo sapiens, UniProt P23458); assay: JAK1 inhibition assay (polyGT substrate / Ulight-JAK1 peptide); assay type: biochemical; settings: recombinant human JAK1 catalytic domain; polyGT or Ulight-JAK1 peptide assay
T3 construct: catalytic domain, amino acids 866-1154; catalog number PV4774; purchased Invitrogen PV4774
T3 sequence (P23458 866-1154): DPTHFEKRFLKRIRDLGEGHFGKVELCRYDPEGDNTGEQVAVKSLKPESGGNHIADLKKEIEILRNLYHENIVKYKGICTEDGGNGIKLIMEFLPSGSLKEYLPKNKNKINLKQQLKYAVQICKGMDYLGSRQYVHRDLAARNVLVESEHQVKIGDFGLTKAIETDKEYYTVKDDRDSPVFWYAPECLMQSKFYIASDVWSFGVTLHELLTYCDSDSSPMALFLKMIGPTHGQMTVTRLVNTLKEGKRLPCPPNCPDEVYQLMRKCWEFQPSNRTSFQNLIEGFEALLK
Method in brief: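 Signal scaled between vehicle and 10 μM staurosporine. Radiometric polyGT reactions ran 45 min at 30 °C, counted after phosphoric-acid stop. Ulight peptide reactions ran 60 min at room temperature, fluorescence read after adding Eu-PT66 detection mix with EDTA.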

human JAK2 = target: T4, human JAK2 (Homo sapiens, UniProt O60674); assay: JAK2 inhibition assay (polyGT substrate / Ulight-JAK1 peptide); assay type: biochemical; settings: recombinant human JAK2 catalytic domain; polyGT or Ulight-JAK1 peptide assay
T4 construct: catalytic domain (amino acids 808-1132; catalog number PV4210); GST; purchased Invitrogen PV4210
T4 sequence (O60674 808-1132): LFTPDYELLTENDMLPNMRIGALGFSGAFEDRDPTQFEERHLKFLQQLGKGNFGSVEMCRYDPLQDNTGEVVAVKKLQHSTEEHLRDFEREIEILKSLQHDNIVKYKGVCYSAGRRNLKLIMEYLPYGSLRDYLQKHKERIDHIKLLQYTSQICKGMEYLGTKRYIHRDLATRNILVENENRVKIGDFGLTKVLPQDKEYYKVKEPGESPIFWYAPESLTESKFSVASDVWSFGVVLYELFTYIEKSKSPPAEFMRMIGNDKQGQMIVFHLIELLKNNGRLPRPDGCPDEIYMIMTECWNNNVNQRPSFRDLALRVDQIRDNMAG
Method in brief: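 Two JAK2 formats: a ^33P-ATP polyGT assay (1 μM cold ATP, 90 min, 30° C., cpm read-out) and a Ulight-JAK1 peptide assay read by Europium-anti-phosphotyrosine fluorescence after 60 min at room temperature.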

Row | IC50 (human TYK2) | IC50 (human JAK3) | IC50 (human JAK1) | IC50 (human JAK2) | Compound | IC50 (CTLL-2 cell line)
1 | 0.01 to 100 nM | 101 to 500 nM | 0.01 to 100 nM | 0.01 to 100 nM | CCc1cc(C(C#N)N2CC(F)(F)C2)ccc1N(C)c1cc2c(cn1)ncn2C (stereo not shown) [Compound 440, (3,3-Difluoro-azetidin-1-yl)-{3-ethyl-4-[methyl-(1-methyl-1H-imidazo[4,5-c]pyridin-6-yl)-amino]-phenyl}-acetonitrile] | > 1000 nM
2 | 0.01 to 100 nM | 0.01 to 100 nM | 0.01 to 100 nM | 0.01 to 100 nM | CCc1cc(CNS(N)(=O)=O)ccc1N(C)c1cc2c(cn1)ncn2C [Compound 423, N-{3-Ethyl-4-[methyl-(1-methyl-1H-imidazo[4,5-c]pyridin-6-yl)-amino]-benzyl}-aminosulfonamide] | > 1000 nM
3 | 0.01 to 100 nM | 501 to 1000 nM | 0.01 to 100 nM | 101 to 500 nM | CCc1cc(C(C#N)N2CCC[C@@H]2COC)ccc1N(C)c1cc2c(cn1)ncn2C (stereo partly drawn) [Compound 439, {3-Ethyl-4-[methyl-(1-methyl-1H-imidazo[4,5-c]pyridin-6-yl)-amino]-phenyl}-((R)-2-methoxymethyl-pyrrolidin-1-yl)-acetonitrile] | > 1000 nM
4 | 0.01 to 100 nM | 101 to 500 nM | 0.01 to 100 nM | 0.01 to 100 nM | CCc1cc(C(C#N)N2CC(O)C2)ccc1N(C)c1cc2c(cn1)ncn2C (stereo not shown) [Compound 450, {3-Ethyl-4-[methyl-(1-methyl-1H-imidazo[4,5-c]pyridin-6-yl)-amino]-phenyl}-(3-hydroxy-azetidin-1-yl)-acetonitrile] | > 1000 nM
5 | 0.01 to 100 nM | 101 to 500 nM | 0.01 to 100 nM | 0.01 to 100 nM | CCc1cc(C(C#N)N2CCC(C(N)=O)CC2)ccc1N(C)c1cc2c(cn1)ncn2C (stereo not shown) [Compound 451, 1-(Cyano-{3-ethyl-4-[methyl-(1-methyl-1H-imidazo[4,5-c]pyridin-6-yl)-amino]-phenyl}-methyl)-piperidine-4-carboxylic acid amide] | > 1000 nM
6 | 0.01 to 100 nM | 101 to 500 nM | 0.01 to 100 nM | 0.01 to 100 nM | CCc1cc(N2CC[C@@H](F)C2)ncc1N(C)c1cc2c(cn1)ncn2C [Compound 414, [4-Ethyl-6-((R)-3-fluoro-pyrrolidin-1-yl)-pyridin-3-yl]-methyl-(1-methyl-1H-imidazo[4,5-c]pyridin-6-yl)-amine] | > 1000 nM
7 | 0.01 to 100 nM | 101 to 500 nM | 0.01 to 100 nM | 0.01 to 100 nM | CCc1cc(C(C#N)N2CCC(F)(F)C2)ccc1N(C)c1cc2c(cn1)ncn2C (stereo not shown) [Compound 441, (3,3-Difluoro-pyrrolidin-1-yl)-{3-ethyl-4-[methyl-(1-methyl-1H-imidazol[4,5-d]pyridin-6-yl)-amino]-phenyl}-acetonitrile] | > 1000 nM
8 | 0.01 to 100 nM | 501 to 1000 nM | 0.01 to 100 nM | 0.01 to 100 nM | CCOC(=O)C1CN(C(C#N)c2ccc(N(C)c3cc4c(cn3)ncn4C)c(CC)c2)C1 (stereo not shown) [Compound 453, 1-(Cyano-{3-ethyl-4-[methyl-(1-methyl-1H-imidazo[4,5-c]pyridin-6-yl)-amino]-phenyl}-methyl)-azetidine-3-carboxylic acid ethyl ester] | > 1000 nM
9 | 101 to 500 nM | > 1000 nM | 0.01 to 100 nM | 101 to 500 nM | CCc1cc(C2CCN(CC#N)CC2)ncc1N(C)c1cc2c(cn1)ncn2C [Compound 384, {4-Ethyl-5-(methyl-(1-methyl-1H-imidazo[4,5-c]pyridin-6-yl)-amino)-3′,4′,5′,6′-tetrahydro-2′H-(2,4′]bipyridinyl-1′-yl}-acetonitrile] | > 1000 nM
10 | 0.01 to 100 nM | 501 to 1000 nM | 0.01 to 100 nM | 101 to 500 nM | CCc1cc(CN2CCNC(=O)C2)ccc1N(C)c1cc2c(cn1)ncn2C [Compound 421, 4-{3-Ethyl-4-[methyl-(1-methyl-1H-imidazo[4,5-c]pyridin-6-yl)-amino]-benzyl}-piperazin-2-one] | > 1000 nM
11 | 101 to 500 nM | 101 to 500 nM | 0.01 to 100 nM | 0.01 to 100 nM | CCc1cc(CNS(=O)(=O)N2CC(F)(F)C2)ccc1N(C)c1cc2c(cn1)ncn2C [Compound 424, 3,3-Difluoro-azetidine-1-sulfonic acid 3-ethyl-4-[methyl-(1-methyl-1H-imidazo[4,5-c]pyridin-6-yl)-amino]-benzylamide] | > 1000 nM
12 | 0.01 to 100 nM | > 1000 nM | 0.01 to 100 nM | 101 to 500 nM | CCc1cc(C(C#N)N2CCN(C)CC2)ccc1N(C)c1cc2c(cn1)ncn2C (stereo not shown) [Compound 449, {3-Ethyl-4-[methyl-(1-methyl-1H-imidazo[4,5-c]pyridin-6-yl)-amino]-phenyl}-(4-methyl-piperazin-1-yl)-acetonitrile] | > 1000 nM
13 | 0.01 to 100 nM | 0.01 to 100 nM | 0.01 to 100 nM | 0.01 to 100 nM | CCc1cc(N2CC[C@H](F)C2)ncc1N(C)c1cc2c(cn1)ncn2C [Compound 415, [4-Ethyl-6-((S)-3-fluoro-pyrrolidin-1-yl)-pyridin-3-yl]-methyl-(1-methyl-1H-imidazo[4,5-c]pyridin-6-yl)-amine] | > 1000 nM
14 | 0.01 to 100 nM | 101 to 500 nM | 0.01 to 100 nM | 0.01 to 100 nM | CCc1cc(C(C#N)N2CC[C@@H](F)C2)ccc1N(C)c1cc2c(cn1)ncn2C (stereo partly drawn) [Compound 438, {3-Ethyl-4-[methyl-(1-methyl-1H-imidazo[4,5-c]pyridin-6-yl)-amino]-phenyl}-((R)-3-fluoro-pyrrolidin-1-yl)-acetonitrile] | > 1000 nM
15 | 101 to 500 nM | > 1000 nM | 0.01 to 100 nM | 101 to 500 nM | CCc1cc(C2CCC2)ncc1N(C)c1cc2c(cn1)ncn2C [Compound 434, (6-Cyclobutyl-4-ethyl-pyridin-3-yl)-methyl-(1-methyl-1H-imidazo[4,5-c]pyridin-6-yl)-amine] | > 1000 nM
16 | 501 to 1000 nM | 101 to 500 nM | 0.01 to 100 nM | 101 to 500 nM | CN(c1cc2c(cn1)ncn2C)c1ccc(C2CN(CC(F)F)C2)cc1OC(F)F [Compound 365, {4-[1-(2,2-Difluoro-ethyl)-azetidin-3-yl]-2-difluoromethoxy-phenyl}-methyl-(1-methyl-1H-imidazo[4,5-c]pyridin-6-yl)-amine] | > 1000 nM
17 | 101 to 500 nM | 101 to 500 nM | 0.01 to 100 nM | 0.01 to 100 nM | CCc1cc(CNS(=O)(=O)N2CCOCC2)ccc1N(C)c1cc2c(cn1)ncn2C [Compound 426, Morpholine-4-sulfonic acid 3-ethyl-4-[methyl-(1-methyl-1H-imidazo[4,5-c]pyridin-6-yl)-amino]-benzylamide] | > 1000 nM
18 | 0.01 to 100 nM | 501 to 1000 nM | 0.01 to 100 nM | 0.01 to 100 nM | CCc1cc(C(C#N)N2CC(C)(C)C2)ccc1N(C)c1cc2c(cn1)ncn2C (stereo not shown) [Compound 446, (3,3-Dimethyl-azetidin-1-yl)-{3-ethyl-4-[methyl-(1-methyl-1H-imidazo[4,5-c]pyridin-6-yl)-amino]-phenyl}-acetonitrile] | > 1000 nM
19 | 101 to 500 nM | > 1000 nM | 0.01 to 100 nM | 101 to 500 nM | CCc1cc(C2CCCCC2)ncc1N(C)c1cc2c(cn1)ncn2C [Compound 432, (6-Cyclohexyl-4-ethyl-pyridin-3-yl)-methyl-(1-methyl-1H-imidazo[4,5-c]pyridin-6-yl)-amine] | > 1000 nM
20 | 0.01 to 100 nM | 101 to 500 nM | 0.01 to 100 nM | 0.01 to 100 nM | CCc1cc(C(C#N)N2CCC(C#N)C2)ccc1N(C)c1cc2c(cn1)ncn2C (stereo not shown) [Compound 445, 1-(Cyano-{3-ethyl-4-[methyl-(1-methyl-1H-imidazo[4,5-c]pyridin-6-yl)-amino]-phenyl}-methyl)-pyrrolidine-3-carbonitrile] | > 1000 nM
